# Like-named read-outs stand apart in the source and are kept apart here.
# How the values were obtained:
# [1] = system: STZ-induced central sensitization in Sprague-Dawley rats; test: PWT (von Frey), streptozotocin rat model of central sensitization (Example 4); type: in vivo; details: week 7; PS 8% hydrogel to both hind paws 3 times a day for 3 weeks from week 4 after STZ
# Description: Sprague-Dawley rats were fasted for 4-6 hours before being injected intraperitoneally with 45 mg/kg STZ. This was performed for all experimental groups, except the naive group. In order to prevent hypoglycaemic death, rats received 10% sucrose water as the sole water source for the first 48 hours after injection. In order to ensure only those rats considered diabetic (i.e., having non-fasting plasma glucose levels of >250 mg/dL) were included in the study, blood glucose was measured at 72 hours after the STZ injection.
# Four weeks after STZ injection, the rats were randomised into treatment groups. This delay between STZ injection and treatment allows the establishment of chronic pain (allodynia) associated with central sensitization. […] 5% lidocaine cream (positive control) was applied only once to both hind paws of the rats 30 minutes before measurement of PWT.
# The rats were split into 8 study groups, with those in the experimental groups (1-4) having an average body weight of about 225 g, and those in the control groups (5-8) having an average body weight of about 335 g, as follows: • 1. Group 1: naive rats (n=5) • 2. Group 2: STZ only (n=6) • 3. Group 3: STZ plus vehicle (n=6) • 4. […] Group 5: STZ plus oral vehicle (n=8) • 6. Group 6: STZ plus 0.7% sulindac hydrogel (n=7) • 7. Group 7: STZ plus 5% lidocaine cream (n=8) • 8.
# [2] = system: PHN induced by HSV-1 KOS strain virus in BALB/c mice; test: PWT (von Frey), HSV-1 mouse model of PHN, topical (Example 20); type: in vivo
# Description: PHN was induced in mice by infecting them with the HSV-1 KOS strain virus and following established protocols (Ou et al, Front Immunol, 14, 1026269, 2023; Takasaki et al, Anesthesiology, 96(5), 1168-74, 2002).
# ; Reckitt Benckiser). Three days later, HSV-1 (10^6 PFUs in 20 μl PBS) was inoculated on the shin of the right hind paw (5×5 mm) after scarification with sandpaper. The virus was applied directly to the scarified area. The contralateral hind paw was without inoculation. Mock infection was performed using the same virus inactivated by heating at 60° C. for 1 h.
# . Group 1: sham inoculated (n=5-7) • 2.
# In a second experiment, the effect of the parent compound, sulindac, was tested in the same mouse model. Five days post-inoculation, sulindac (as a 5% gel), or vehicle control were administered topically onto both hind paws of mice three times a day for three days.
# . Group 1: vehicle control (n=5-7) • 2. Group 2: sulindac 5% (n=5-7)
# [3] = Pharmacokinetics and biodistribution after topical PS 8% ointment to hind paws (Example 25); type: in vivo, mouse; details: normal mice, topical PS 8% ointment to hind paws; for AUC(0-t) / Cmax / half-life: mouse, in vivo, topical or ocular, 50 μl per paw of PS 8% ointment; for AUC(0-t): read-out: AUC0-24 h; for Cmax: read-out: Cmax, mean ± SEM
# Description: At 0.5, 1, 3, 5, 12, 18, and 24 h, mice (n=4-5 mice/time point) were euthanized with CO2 inhalation. Blood was drawn immediately after death. Tissues, including paw skin, paw muscle, leg muscle, the sciatic nerve and lumbar DRG bilaterally were dissected quickly, immediately frozen in liquid nitrogen and stored at −80° C. until analyzed.
# [4] = PS and metabolites in proximal and distal half of the sciatic nerve (Example 25); type: in vivo, mouse; details: mice with paclitaxel-induced PN, PS 8% ointment 3x/d for 2 wks, 30 min after last dose; for concentration at 30 min: mouse, in vivo, 8 % PS ointment, 3×/d
# Description: In a separate experiment we studied 8 mice with paclitaxel-induced PN treated with PS 8% ointment 3×/d for 2 wks. Mice were euthanized as above 30 minutes after the last dose of PS. From these mice we harvested both sciatic nerves dividing each into proximal and distal halves, and combined the corresponding halves of every two animals for assay of drug levels.
# [5] = Pharmacokinetics and biodistribution after 3% PS gel on outer surface of eyelid (Example 26); type: in vivo, rabbit; details: male, New Zealand White, rabbit, rabbits, 3% PS gel on outer surface of upper eyelids; for Cmax / half-life / AUC(0-t): topical or ocular; for AUC(0-t): read-out: AUC0-24 h; for concentration at 0.5 h / concentration at 1 h / concentration at 2 h / concentration at 4 h / concentration at 8 h / concentration at 24 h: topical, read-out: Amount in tissue, Mean ± SEM
# Description: The pharmacokinetics and biodistribution of 3% PS gel applied to the outer surface of both upper eyelids was studies in male New Zealand White rabbits.
# Eyelid and tissues of the globe were dissected and frozen quickly in liquid nitrogen until the levels of PS and its metabolites were determined by HPLC as described Xie et al. (Br J Pharmacol (2012);165:2152-66).
# [6] = system: paclitaxel-induced central sensitization in C57/BL/6J mice; details: day 14
# Description: Regarding the treatment with lidocaine: 5% lidocaine cream (a positive control) was applied once to both hind paws of the mice 30 minutes before measurement of PWT.
# Briefly, for mechanical allodynia, pain threshold responses were measured using the well-established method of von Frey filaments in line with that performed in the earlier Examples. The PWT test was performed on day-8 (before the first dose of paclitaxel), the day of starting treatment (day 0, at which central sensitization was fully established) and day 14 (treatment continued until day 15). The mechanical threshold, expressed as g, indicates the force of the von Frey filament to which the animal reacted.
# COX-1 = COX-1 (Homo sapiens, UniProt P23219); details: background statement; cited from earlier work
# COX-1, sequence (P23219 24-599): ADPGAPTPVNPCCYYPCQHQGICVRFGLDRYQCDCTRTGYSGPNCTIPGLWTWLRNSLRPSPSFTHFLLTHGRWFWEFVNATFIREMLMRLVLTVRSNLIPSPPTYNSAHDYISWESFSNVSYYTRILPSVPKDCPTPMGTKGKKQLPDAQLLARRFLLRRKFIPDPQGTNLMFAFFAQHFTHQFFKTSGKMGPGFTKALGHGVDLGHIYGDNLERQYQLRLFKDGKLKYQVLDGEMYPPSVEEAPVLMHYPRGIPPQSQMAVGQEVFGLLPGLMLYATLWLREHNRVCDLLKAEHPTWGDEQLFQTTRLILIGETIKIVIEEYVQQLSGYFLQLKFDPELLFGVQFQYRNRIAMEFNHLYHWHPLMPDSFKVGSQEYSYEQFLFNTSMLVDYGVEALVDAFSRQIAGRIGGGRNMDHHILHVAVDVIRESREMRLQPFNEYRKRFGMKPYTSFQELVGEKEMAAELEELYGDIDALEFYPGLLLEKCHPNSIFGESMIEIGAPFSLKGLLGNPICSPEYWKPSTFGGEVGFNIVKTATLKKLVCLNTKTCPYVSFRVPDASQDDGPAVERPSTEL
# [7] = system: NTG-induced chronic migraine in mice; test: PWT (von Frey), NTG-induced chronic migraine model, oral (Example 16)
# Description: In particular, mice receive sublingual NTG 0.4 mg in the form of a finely crushed 0.4 mg NTG tablet (Greenstone Brand) every two days, receiving a total of five doses. For control mice, an NTG placebo (Practi-Nitroglycerin Sublingual 0.4 mg Simulated Medication tablet) was administered in the same way.
# Group 1: placebo NTG (i.e, no NTG treatment, n=8) • 2. Group 2: NTG (n=8) • 3. Group 3: NTG+vehicle (n=8) • 4. […] Group 5: NTG+sulindac (n=8)
# Mechanical allodynia was determined using von Frey filaments in line with that performed in the earlier Examples. The PWT test was performed prior to NTG (or placebo NTG) administration to determine baseline values, as indicated. […] The mechanical threshold, expressed as g, indicates the force of the von Frey filament to which the animal reacted.
# [8] = system: NTG-induced migraine in C57BL/6J mice; test: PWT (von Frey), NTG-induced migraine mouse model, topical (Example 13)
# Description: Specifically, instead of the intraperitoneal injection of NTG, a finely crushed 0.4 mg NTG tablet (Greenstone Brand) was administered sublingually. As a control, a Practi-Nitroglycerin Sublingual 0.4 mg Simulated Medication tablet was used.
# For determining mechanical allodynia, pain threshold responses were measured using the well-established method of von Frey filaments in line with that performed in the earlier Examples.
# The PWT test, assessing mechanical allodynia, was performed 30 minutes after treatment. The mechanical threshold, expressed as g, indicates the force of the von Frey filament to which the animal reacted.
smiles,measurement,setting,value
"CCOP(=O)(OCC)OCCCCOC(=O)CC1=C(C)/C(=C/c2ccc([S+](C)[O-])cc2)c2ccc(F)cc21 (stereo not drawn) [PS, phosphosulindac]","PWT, gm Mean ± SEM",[1],22.5 ± 2.20 gm
same,"PWT, g Mean ± SEM","[2]; Post-inoculation, day 5 (before treatment)",0.53 ± 0.06 g
same,"PWT, g Mean ± SEM","[2]; Post-treatment, PS 5% gel on both hind paws three times a day for three days",0.93 ± 0.06 g
same,"PWT, g Mean ± SEM",[2]; Pre-inoculation,1.27 ± 0.19 g
same,AUC(0-t),[3]; DRG (dorsal root ganglia),4.5 µM·h
same,Cmax,[3]; DRG (dorsal root ganglia),300 ± 100 nM
same,half-life,[3]; SN (sciatic nerve),57.4 h
same,AUC(0-t),[3]; SN (sciatic nerve),12 µM·h
same,Cmax,[3]; SN (sciatic nerve),900 ± 100 nM
same,half-life,[3]; leg muscle,20.6 h
same,AUC(0-t),[3]; leg muscle,172 µM·h
same,Cmax,[3]; leg muscle,35000 ± 3600 nM
same,half-life,[3]; paw muscle,11.4 h
same,AUC(0-t),[3]; paw muscle,411 µM·h
same,Cmax,[3]; paw muscle,102000 ± 4600 nM
same,half-life,[3]; paw skin,16.1 h
same,AUC(0-t),[3]; paw skin,1610 µM·h
same,Cmax,[3]; paw skin,195000 ± 5300 nM
same,detection in the systemic circulation,[3],no PS was detected
same,"Distal half of sciatic nerve, mean ± SEM",[4],17.0 ± 5.1 µM
same,"Proximal half of sciatic nerve, μM, mean ± SEM",[4],0.9 ± 0.3 µM
same,concentration at 30 min,"[4]; read-out: Distal half of sciatic nerve, mean ± SEM",17 ± 5.1 µM
same,concentration at 30 min,"[4]; read-out: Proximal half of sciatic nerve, μM, mean ± SEM",0.9 ± 0.3 µM
same,Cmax,[5]; conjunctiva,5800 nM
same,half-life,[5]; conjunctiva,5.7 h
same,AUC(0-t),[5]; conjunctiva,58.6 ± 0.9 µM·h
same,Cmax,[5]; cornea,1800 nM
same,half-life,[5]; cornea,23 h
same,AUC(0-t),[5]; cornea,6.4 ± 0.4 µM·h
same,Cmax,[5]; eyelid,14200 nM
same,half-life,[5]; eyelid,14.4 h
same,AUC(0-t),[5]; eyelid,45.2 ± 0.5 µM·h
same,concentration at 0.5 h,[5]; AH (aqueous humor),0 nM
same,concentration at 1 h,[5]; AH (aqueous humor),0 nM
same,concentration at 2 h,[5]; AH (aqueous humor),0 nM
same,concentration at 4 h,[5]; AH (aqueous humor),0 nM
same,concentration at 8 h,[5]; AH (aqueous humor),0 nM
same,concentration at 24 h,[5]; AH (aqueous humor),0 nM
same,concentration at 0.5 h,[5]; conjunctiva,1300 ± 100 nM
same,concentration at 1 h,[5]; conjunctiva,1800 ± 300 nM
same,concentration at 2 h,[5]; conjunctiva,400 ± 100 nM
same,concentration at 4 h,[5]; conjunctiva,6100 ± 3300 nM
same,concentration at 8 h,[5]; conjunctiva,3400 ± 1400 nM
same,concentration at 24 h,[5]; conjunctiva,500 ± 400 nM
same,concentration at 0.5 h,[5]; cornea,1800 ± 900 nM
same,concentration at 1 h,[5]; cornea,1300 ± 200 nM
same,concentration at 2 h,[5]; cornea,1400 ± 100 nM
same,concentration at 4 h,[5]; cornea,500 ± 100 nM
same,concentration at 8 h,[5]; cornea,1100 ± 600 nM
same,concentration at 24 h,[5]; cornea,0 nM
same,concentration at 0.5 h,[5]; eyelid,8300 ± 2200 nM
same,concentration at 1 h,[5]; eyelid,14200 ± 5300 nM
same,concentration at 2 h,[5]; eyelid,2000 ± 500 nM
same,concentration at 4 h,[5]; eyelid,3500 ± 1900 nM
same,concentration at 8 h,[5]; eyelid,200 ± 200 nM
same,concentration at 24 h,[5]; eyelid,1800 ± 1300 nM
same,concentration at 0.5 h,[5]; vitreous,0 nM
same,concentration at 1 h,[5]; vitreous,0 nM
same,concentration at 2 h,[5]; vitreous,0 nM
same,concentration at 4 h,[5]; vitreous,0 nM
same,concentration at 8 h,[5]; vitreous,0 nM
same,concentration at 24 h,[5]; vitreous,0 nM
same,"PWT, g Mean ± SEM",[6]; PS 1.2% (equimolar to sulindac 0.7%) 3 times a day,0.98 ± 0.06 g
same,"PWT, g Mean ± SEM","[6]; PS hydrogel 5% or 0.7% sulindac 3 times a day, 5% lidocaine cream once 30 min before, pregabalin 10 mg/kg orally once 1 h before",1.24 ± 0.07 g
same,inhibition of COX-1,COX-1,does not inhibit
same,"PWT, g Mean ± SEM","[7]; Baseline, prior to NTG administration",2.28 ± 0.34 g
same,"PWT, g Mean ± SEM","[7]; Day 11, orally once a day for 11 days concurrent with NTG, PS 50 mg/kg, sulindac 33 mg/kg",1.18 ± 0.10 g
same,PWT Post-treatment Mean ± SEM,"[8]; 30 min after treatment, PS 8% gel or sulindac 5.3% (in DMSO) on both hind paws 30 min after NTG",1.00 ± 0.12 g
same,PWT Baseline Mean ± SEM,"[8]; baseline of the group, before NTG and treatment",1.72 ± 0.10 g

# Reference: US20250345350A1, “TREATING PAIN ASSOCIATED WITH CENTRAL SENSITIZATION” (Medicon Pharmaceuticals, Inc., priority 2022, published 2025)
